Each structure is given as a SMILES string. pKi: −log10 of the molar value. Read-outs that look alike come from different tables or passages of the source.

Ki data for 18 compounds are collected here from patent publication US8580794B2 (AbbVie Inc., priority 2009, dated 2013).

The target in the assay is GST-Bc1-2 (Homo sapiens, UniProt P10415). In words: Time Resolved-Fluorescence Resonance Energy Transfer (TR-FRET) Bcl-2 binding assay with F-Bak peptide probe. (In TR-FRET formats the signal depends on donor and acceptor labels being close together.)
Where [1] appears, read: GST-Bcl-2 1 nM, F-Bak probe 100 nM, Tb-anti-GST 1 nM, '<' = below limit of detection, read-out: TR-FRET Bcl-2 Binding Ki.

GST-Bc1-2, sequence (P10415 whole entry): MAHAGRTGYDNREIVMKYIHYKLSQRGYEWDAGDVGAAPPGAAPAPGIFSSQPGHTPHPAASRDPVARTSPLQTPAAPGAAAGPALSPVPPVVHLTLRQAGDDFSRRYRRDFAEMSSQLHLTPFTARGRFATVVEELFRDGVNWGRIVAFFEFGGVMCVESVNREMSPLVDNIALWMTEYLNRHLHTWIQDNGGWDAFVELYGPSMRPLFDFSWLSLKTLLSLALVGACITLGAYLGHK

Turning to `CC1(C)CCC(CN2CCN(c3ccc(C(=O)NS(=O)(=O)c4ccc(Cl)c([N+](=O)[O-])c4)c(Oc4cnc5[nH]ccc5c4)c3)CC2)=C(c2ccc(Cl)cc2)C1` [Example 82, N-[(4-chloro-3-nitrophenyl)sulfonyl]-4-(4-{[2-(4-chlorophenyl)-4,4-dimethylcyclohex-1-en-1-yl]methyl}piperazin-1-yl)-2-(1H-pyrrolo[2,3-b]pyridin-5-yloxy)benzamide], under setting [1], the negative logarithm of the Ki (pKi) was 9.48.

`CC1(C)CCC(CN2CCN(c3ccc(C(=O)NS(=O)(=O)c4ccc(NC5CCN(CC(F)(F)F)CC5)c([N+](=O)[O-])c4)c(Oc4cnc5[nH]ccc5c4)c3)CC2)=C(c2ccc(Cl)cc2)C1` [Example 83, 4-(4-{[2-(4-chlorophenyl)-4,4-dimethylcyclohex-1-en-1-yl]methyl}piperazin-1-yl)-N-[(3-nitro-4-{[1-(2,2,2-trifluoroethyl)piperidin-4-yl]amino}phenyl)sulfonyl]-2-(1H-pyrrolo[2,3-b]pyridin-5-yloxy)benzamide]: under setting [1], the pKi was 10.15.

Consider `CC1(C)CCC(CN2CCN(c3ccc(C(=O)NS(=O)(=O)c4cnc(OC5CCN(C6CCOCC6)CC5)c(C#N)c4)c(Oc4cnc5[nH]ccc5c4)c3)CC2)=C(c2ccc(Cl)cc2)C1` [Example 84, 4-(4-{[2-(4-chlorophenyl)-4,4-dimethylcyclohex-1-en-1-yl]methyl}piperazin-1-yl)-N-({5-cyano-6-[(1-tetrahydro-2H-pyran-4-ylpiperidin-4-yl)oxy]pyridin-3-yl}sulfonyl)-2-(1H-pyrrolo[2,3-b]pyridin-5-yloxy)benzamide], for which, under setting [1], the pKi was 9.91.

For `CC(C)c1cc(S(=O)(=O)NC(=O)c2ccc(N3CCN(CC4=C(c5ccc(Cl)cc5)CC(C)(C)CC4)CC3)cc2Oc2cnc3[nH]ccc3c2)cnc1OCC1CCOCC1` [Example 85, 4-(4-{[2-(4-chlorophenyl)-4,4-dimethylcyclohex-1-en-1-yl]methyl}piperazin-1-yl)-N-{[5-isopropyl-6-(tetrahydro-2H-pyran-4-ylmethoxy)pyridin-3-yl]sulfonyl}-2-(1H-pyrrolo[2,3-b]pyridin-5-yloxy)benzamide], the negative-log Ki (pKi) under setting [1] was 9.41.

As for `CC1(C)CCC(CN2CCN(c3ccc(C(=O)NS(=O)(=O)c4cc(F)c(NCC5CCOCC5)c(Cl)c4)c(Oc4cnc5[nH]ccc5c4)c3)CC2)=C(c2ccc(Cl)cc2)C1` [Example 86, N-({3-chloro-5-fluoro-4-[(tetrahydro-2H-pyran-4-ylmethyl)amino]phenyl}sulfonyl)-4-(4-{[2-(4-chlorophenyl)-4,4-dimethylcyclohex-1-en-1-yl]methyl}piperazin-1-yl)-2-(1H-pyrrolo[2,3-b]pyridin-5-yloxy)benzamide], the pKi under setting [1] was 9.30.

Turning to `O=C(NS(=O)(=O)c1ccc(NCCCN2CCOCC2)c([N+](=O)[O-])c1)c1ccc(N2CCN(Cc3ccccc3-c3ccc(Cl)cc3)CC2)cc1Oc1ccc2[nH]ccc2c1` [Example 88, 4-{4-[(4′-chloro-1,1′-biphenyl-2-yl)methyl]piperazin-1-yl}-2-(1H-indol-5-yloxy)-N-({4-[(3-morpholin-4-ylpropyl)amino]-3-nitrophenyl}sulfonyl)benzamide], the negative-log Ki (pKi) under setting [1] is 9.17.

As for `CN1CCC(Nc2ccc(S(=O)(=O)NC(=O)c3ccc(N4CCN(CC5=C(c6ccc(Cl)cc6)CC(C)(C)CC5)CC4)cc3Oc3ccc4[nH]ccc4c3)cc2[N+](=O)[O-])CC1` [Example 90, 4-(4-{[2-(4-chlorophenyl)-4,4-dimethylcyclohex-1-en-1-yl]methyl}piperazin-1-yl)-2-(1H-indol-5-yloxy)-N-({4-[(1-methylpiperidin-4-yl)amino]-3-nitrophenyl}sulfonyl)benzamide], the negative logarithm of the Ki (pKi) is, setting by setting: (TR-FRET Bcl-2 Binding Ki) 10.89; (read-out: Bcl-2 FRET ki) 10.89.

Turning to `CN1CCN(Nc2ccc(S(=O)(=O)NC(=O)c3ccc(N4CCN(CC5=C(c6ccc(Cl)cc6)CC(C)(C)CC5)CC4)cc3Oc3ccc4[nH]ccc4c3)cc2[N+](=O)[O-])CC1` [Example 91, 4-(4-{[2-(4-chlorophenyl)-4,4-dimethylcyclohex-1-en-1-yl]methyl}piperazin-1-yl)-2-(1H-indol-5-yloxy)-N-({4-[(4-methylpiperazin-1-yl)amino]-3-nitrophenyl}sulfonyl)benzamide], the negative logarithm of the Ki (pKi) reads like this: (TR-FRET Bcl-2 Binding Ki) 9.31; (read-out: Bcl-2 FRET ki) 9.31.

In the case of `CC1(C)CCC(CN2CCN(c3ccc(C(=O)NS(=O)(=O)c4ccc(OCC5COCCO5)c([N+](=O)[O-])c4)c(Oc4ccc5[nH]ccc5c4)c3)CC2)=C(c2ccc(Cl)cc2)C1` (stereo not drawn) [Example 92, 4-(4-{[2-(4-chlorophenyl)-4,4-dimethylcyclohex-1-en-1-yl]methyl}piperazin-1-yl)-N-{[4-(1,4-dioxan-2-ylmethoxy)-3-nitrophenyl]sulfonyl}-2-(1H-indol-5-yloxy)benzamide], the pKi runs as follows: (TR-FRET Bcl-2 Binding Ki) 9.89; (read-out: Bcl-2 FRET Ki) 9.89; (read-out: Bcl-2 FRET ki) 9.89.

In the case of `COCCNc1ccc(S(=O)(=O)NC(=O)c2ccc(N3CCN(CC4=C(c5ccc(Cl)cc5)CC(C)(C)CC4)CC3)cc2Oc2ccc3[nH]ccc3c2)cc1S(=O)(=O)C(F)(F)F` [Example 93, 4-(4-{[2-(4-chlorophenyl)-4,4-dimethylcyclohex-1-en-1-yl]methyl}piperazin-1-yl)-2-(1H-indol-5-yloxy)-N-({4-[(2-methoxyethyl)amino]-3-[(trifluoromethyl)sulfonyl]phenyl}sulfonyl)benzamide], the negative-log Ki (pKi) was 8.46 under setting [1] and 7.46 (read-out: Bcl-2 FRET ki).

For `CC1(C)CCC(CN2CCN(c3ccc(C(=O)NS(=O)(=O)c4ccc(NCC5CCOCC5)c(S(=O)(=O)C(F)(F)F)c4)c(Oc4ccc5[nH]ccc5c4)c3)CC2)=C(c2ccc(Cl)cc2)C1` [Example 94, 4-(4-{[2-(4-chlorophenyl)-4,4-dimethylcyclohex-1-en-1-yl]methyl}piperazin-1-yl)-2-(1H-indol-5-yloxy)-N-({4-[(tetrahydro-2H-pyran-4-ylmethyl)amino]-3-[(trifluoromethyl)sulfonyl]phenyl}sulfonyl)benzamide], the negative logarithm of the Ki (pKi) is 9.17 (TR-FRET Bcl-2 Binding Ki) and 9.17 (read-out: Bcl-2 FRET ki).

In the case of `CC1(C)CCC(CN2CCN(c3ccc(C(=O)NS(=O)(=O)c4ccc(NC5CCN(C(CF)CF)CC5)c([N+](=O)[O-])c4)c(Oc4cnc5[nH]ccc5c4)c3)CC2)=C(c2ccc(Cl)cc2)C1` [Example 95, 4-(4-{[2-(4-chlorophenyl)-4,4-dimethylcyclohex-1-en-1-yl]methyl}piperazin-1-yl)-N-{[4-({1-[2-fluoro-1-(fluoromethyl)ethyl]piperidin-4-yl}amino)-3-nitrophenyl]sulfonyl}-2-(1H-pyrrolo[2,3-b]pyridin-5-yloxy)benzamide], the pKi under setting [1] is 10.85.

Regarding `CC1(C)CCC(CN2CCN(c3ccc(C(=O)NS(=O)(=O)c4cnc(OCC5(F)CCOCC5)c(Cl)c4)c(Oc4cnc5[nH]ccc5c4)c3)CC2)=C(c2ccc(Cl)cc2)C1` [Example 96, N-({5-chloro-6-[(4-fluorotetrahydro-2H-pyran-4-yl)methoxy]pyridin-3-yl}sulfonyl)-4-(4-{[2-(4-chlorophenyl)-4,4-dimethylcyclohex-1-en-1-yl]methyl}piperazin-1-yl)-2-(1H-pyrrolo[2,3-b]pyridin-5-yloxy)benzamide], under setting [1], the pKi was 10.85.

As to `CC1(C)CCC(CN2CCN(c3ccc(C(=O)NS(=O)(=O)c4ccc(NC5CCN(CC(F)F)CC5)c([N+](=O)[O-])c4)c(Oc4cnc5[nH]ccc5c4)c3)CC2)=C(c2ccc(Cl)cc2)C1` [Example 97, 4-(4-{[2-(4-chlorophenyl)-4,4-dimethylcyclohex-1-en-1-yl]methyl}piperazin-1-yl)-N-[(4-{[1-(2,2-difluoroethyl)piperidin-4-yl]amino}-3-nitrophenyl)sulfonyl]-2-(1H-pyrrolo[2,3-b]pyridin-5-yloxy)benzamide], the pKi under setting [1] was 10.77.

Regarding `CC1(C)CCC(CN2CCN(c3ccc(C(=O)NS(=O)(=O)c4ccc(NC5CCN(C6CC6)CC5)c([N+](=O)[O-])c4)c(Oc4cnc5[nH]ccc5c4)c3)CC2)=C(c2ccc(Cl)cc2)C1` [Example 98, 4-(4-{[2-(4-chlorophenyl)-4,4-dimethylcyclohex-1-en-1-yl]methyl}piperazin-1-yl)-N-({4-[(1-cyclopropylpiperidin-4-yl)amino]-3-nitrophenyl}sulfonyl)-2-(1H-pyrrolo[2,3-b]pyridin-5-yloxy)benzamide], under setting [1], the pKi is more than 11.00.

Regarding `CC1(C)CCC(CN2CCN(c3ccc(C(=O)NS(=O)(=O)c4ccc(NCC5(N6CCOCC6)CCCCC5)c([N+](=O)[O-])c4)c(Oc4cnc5[nH]ccc5c4)c3)CC2)=C(c2ccc(Cl)cc2)C1` [Example 99, 4-(4-{[2-(4-chlorophenyl)-4,4-dimethylcyclohex-1-en-1-yl]methyl}piperazin-1-yl)-N-[(4-{[(1-morpholin-4-ylcyclohexyl)methyl]amino}-3-nitrophenyl)sulfonyl]-2-(1H-pyrrolo[2,3-b]pyridin-5-yloxy)benzamide], the negative-log Ki (pKi) under setting [1] was 9.63.

Take `CC1(C)CCC(CN2CCN(c3ccc(C(=O)NS(=O)(=O)c4ccc(N[C@H]5CC[C@H](N(C6CC6)C6CC6)CC5)c([N+](=O)[O-])c4)c(Oc4cnc5[nH]ccc5c4)c3)CC2)=C(c2ccc(Cl)cc2)C1` [Example 100, Trans-4-(4-{[2-(4-chlorophenyl)-4,4-dimethylcyclohex-1-en-1-yl]methyl}piperazin-1-yl)-N-[(4-{[4-(dicyclopropylamino)cyclohexyl]amino}-3-nitrophenyl)sulfonyl]-2-(1H-pyrrolo[2,3-b]pyridin-5-yloxy)benzamide]: the negative logarithm of the Ki (pKi) under setting [1] was more than 11.00.

`CCN1CCOCC1COc1ncc(S(=O)(=O)NC(=O)c2ccc(N3CCN(CC4=C(c5ccc(Cl)cc5)CC(C)(C)CC4)CC3)cc2Oc2cnc3[nH]ccc3c2)cc1Br` (stereo not drawn) [Example 102, N-({5-bromo-6-[(4-ethylmorpholin-3-yl)methoxy]pyridin-3-yl}sulfonyl)-4-(4-{[2-(4-chlorophenyl)-4,4-dimethylcyclohex-1-en-1-yl]methyl}piperazin-1-yl)-2-(1H-pyrrolo[2,3-b]pyridin-5-yloxy)benzamide]: the pKi under setting [1] was 10.03.

By pKi is commonly meant the negative decadic logarithm of the Ki, by convention in mol/L.
